Test results from patent US20190365843A1, “Antimicrobial Activity of Bioactive Compounds and Their Derivatives” (priority 2018, published 2019).

Tests used:
[1] = test system: Pleisiomonas sp.; experiment: Agar diffusion growth inhibition zone, Pleisiomonas sp.; format: cell-based, Pleisiomonas species; details: for inhibition of growth: Plesiomonas species
Protocol: (§1) Among the bacterial agents tested Gram positive and Gram negative bacterial groups represented by Staphylococcus aureus and Enterococcus species and pathogenic members of Enterobacteriaceae, Vibronaceae, Aeromonadaceae, Pseudomonadaceae were tested. Freshly sub-cultured bacterial strains were inoculated into peptone water and incubated for 4 hours at 37° C. and adjusted to a turbidity of 0.5 (Gram Negative Bacilli), 1 (Gram Positive Cocci) and 4 (Pus cells, GNB, & few Budding yeast cells) Mc Farland standards (10^8 CFU/ml) respectively.
(§2) The different bioactive compounds and their derivatives were dissolved and diluted with solvents (DMSO), number of subsequent dilutions was performed to obtain different concentrations of the bioactive compounds and their derivatives. (Working Concentrations).
(§3) Agar well diffusion method is widely used to evaluate the antimicrobial activity of plants or other synthetic products. The suspension (microbial inoculum) was used to inoculate into Muller Hinton Agar Petri plates by lawn culture. Well (diameter 6 mm) were punched in the agar by sterile borer and filled with 50 μl of dissolved extracts. Plates were incubated in incubator at 37° C. for 24 hours and measured the growth inhibition zone diameters in mm compared with that of control (DMSO) showing no growth.
(§4) The bioactive compounds were tested with desired concentrations in 6 mm filter paper discs (Whatman, no. 3) were impregnated with 10 μL of each of the different dilutions. The discs were allowed to remain at room temperature until complete diluent evaporation and kept under refrigeration until ready to be used. 10 μL of diluents used to products were used as control. Tests were performed by Agar disk-diffusion testing method, which is the official method used in many clinical microbiology laboratories for routine antimicrobial susceptibility testing.
(§5) Similar to the procedure used in Agar well diffusion method, the suspension (microbial inoculum) was used to inoculate into Muller Hinton Agar Petri plates by lawn culture. Then, filter paper discs (about 6 mm in diameter), containing the test compound at a desired concentration, were placed on the agar surface. The Petri dishes were incubated under suitable incubation conditions.
(§6) Bioactive compounds showing zone of inhibition beyond the size of 6 mm are considered to be having an anti-microbial activity.

[2] = test system: E. coli ATCC 25922; experiment: Agar diffusion growth inhibition zone, E. coli ATCC 25922; format: cell-based; details: Escherichia coli, 6 mm = no activity; for zone of inhibition at 100 mg/mL: ATCC25922, 100 mg
Protocol: as §1, §2, §3, §4, §5, §6

[3] = test system: Pseudomonas sp.; experiment: Agar diffusion growth inhibition zone, Pseudomonas sp.; format: cell-based, Pseudomonas species; details: Pseudomonas
[4] = test system: EAEC; experiment: Agar diffusion growth inhibition zone, EAEC; format: cell-based, Enteroaggregative E. coli; details: Escherichia coli, 6 mm = no activity
Protocol: as §1, §2, §3, §4, §5, §6

[5] = test system: Enterococcus sp.; experiment: Agar diffusion growth inhibition zone, Enterococcus sp.; format: cell-based, Enterococcus species; details: 6 mm = no activity
Protocol: as §1, §2, §3, §4, §5, §6

[6] = test system: Salmonella typhimurium; experiment: Agar diffusion growth inhibition zone, Salmonella typhimurium; format: cell-based; details: Salmonella enterica, 6 mm = no activity
Protocol: as §1, §2, §3, §4, §5, §6

[7] = test system: Shigella sp.; experiment: Agar diffusion growth inhibition zone, Shigella sp.; format: cell-based, Shigella species; details: Shigella
Protocol: (§7) Agar well diffusion method is widely used to evaluate the antimicrobial activity of plants or other synthetic products. The suspension (microbial inoculum) was used to inoculate into Muller Hinton Agar Petri plates by lawn culture. Well (diameter 6 mm) were punched in the agar by sterile borer and filled with 50 μl of dissolved extracts. Plates were incubated in incubator at 37° C. for 24 hours and measured the growth inhibition zone diameters in mm compared with that of control (DMSO) showing no growth. The antimicrobial agent diffuses in the agar medium and inhibits the growth of the microbial strain tested (Valgas et al., (2016) Methods for in vitro evaluating antimicrobial activity: A review. Journal of Pharmaceutical Analysis. 6(2):71-9).
(§8) Similar to the procedure used in Agar well diffusion method, the suspension (microbial inoculum) was used to inoculate into Muller Hinton Agar Petri plates by lawn culture. Then, filter paper discs (about 6 mm in diameter), containing the test compound at a desired concentration, were placed on the agar surface. The Petri dishes were incubated under suitable incubation conditions. Generally, antimicrobial agent diffuses into the agar and inhibits germination and growth of the test microorganism and then the diameters of inhibition growth zones are measured (Valgas et al., (2007) Screening methods to determine antibacterial activity of natural products. Brazilian Journal of Microbiology. 38:369-80; Balouiri M et al., (2016) Methods for in vitro evaluating antimicrobial activity: A review. Journal of Pharmaceutical Analysis. 6(2):71-9).

[8] = test system: Vibrio cholera; experiment: Agar diffusion growth inhibition zone, Vibrio cholera; format: cell-based, Vibrio cholerae; details: Vibrio cholerae
Protocol: as §7, §8

[9] = test system: Klebsiella sp.; experiment: Agar diffusion growth inhibition zone, Klebsiella sp.; format: cell-based, Klebsiella species; details: 6 mm = no activity
Protocol: as §1, §2, §3, §4, §5, §6

[10] = test system: S. aureus; experiment: Agar diffusion growth inhibition zone, S. aureus; format: cell-based, Staphylococcus aureus; details: Staphylococcus aureus, 6 mm = no activity
Protocol: as §1, §2, §3, §4, §5, §6

[11] = test system: Aeromonas sp.; experiment: Agar diffusion growth inhibition zone, Aeromonas sp.; format: cell-based, Aeromonas species; details: Aeromonas sp., 6 mm = no activity
Protocol: as §1, §2, §3, §4, §5, §6

[12] = test system: Citrobacter sp.; experiment: Agar diffusion growth inhibition zone, Citrobacter sp.; format: cell-based, Citrobacter species; details: 6 mm = no activity
Protocol: as §1, §2, §3, §4, §5, §6

[13] = test system: Proteus sp.; experiment: Agar diffusion growth inhibition zone, Proteus sp.; format: cell-based, Proteus species; details: Proteus sp.; 150 mg; 6 mm = no activity
Protocol: as §1, §2, §3, §4, §5, §6

[14] = test system: Candida abicans; experiment: Agar diffusion growth inhibition zone, Candida abicans; format: cell-based, Candida albicans; details: 6 mm = no activity
Protocol: as §1, §2, §3, §4, §5, §6

[15] = Pleisiomonas sp., 6 mm = no activity

Compound | inhibition of growth [1] | zone of inhibition at 100 mg/mL [2] [mm] | zone of inhibition at 100000 µg/disc [3] [mm] | zone of inhibition at 100 mg/mL [4] [mm] | zone of inhibition at 100 mg/mL [5] [mm] | zone of inhibition at 100 mg/mL [6] [mm] | zone of inhibition at 100 mg/mL [1, 15] [mm] | zone of inhibition at 100000 µg/disc [7] [mm] | zone of inhibition at 100000 µg/disc [8] [mm] | zone of inhibition at 100 mg/mL [9] [mm] | zone of inhibition at 100 mg/mL [10] [mm] | zone of inhibition at 100 mg/mL [11] [mm] | zone of inhibition at 100 mg/mL [12] [mm] | zone of inhibition at 100 mg/mL [14] [mm] | further results
Demethoxycalebin-A | inhibited | – | – | – | – | – | – | – | – | – | – | – | – | – | –
COc1cc(CCc2cc(CCc3ccc(O)c(OC)c3)on2)ccc1O [compound 8, Tetrahydrocurcumin Isoxazole] | – | 6 | 6 | 8 | 6 | 6 | 6 | 6 | 6 | 6 | 6 | 6 | 6 | 6 | zone of inhibition at 150 mg/mL ([2]; ATCC25922, 150 mg): 6 mm; zone of inhibition at 150000 µg/disc [3]: 6 mm; zone of inhibition at 150 mg/mL ([4]; 150 mg): 8 mm; zone of inhibition at 150 mg/mL ([5]; 150 mg): 6 mm; zone of inhibition at 150 mg/mL ([6]; 150 mg): 6 mm; zone of inhibition at 150 mg/mL ([1]; Pleisiomonas sp., 150 mg, 6 mm = no activity): 6 mm; zone of inhibition at 150000 µg/disc [7]: 6 mm; zone of inhibition at 150000 µg/disc [8]: 6 mm; zone of inhibition at 150 mg/mL ([9]; 150 mg): 6 mm; zone of inhibition at 150 mg/mL ([10]; 150 mg): 6 mm; zone of inhibition at 150 mg/mL ([11]; 150 mg): 6 mm; zone of inhibition at 150 mg/mL ([12]; 150 mg): 6 mm; zone of inhibition at 150 mg/mL [13]: 6 mm; zone of inhibition at 150 mg/mL ([14]; 150 mg): 6 mm
O=C(/C=C/c1ccc(O)cc1)COC(=O)/C=C/c1ccc(O)cc1 [compound 13, Bisdemethoxycalebin- A] | inhibited | 6 | 6 | 6 | 6 | 6 | 9 | 6 | 6 | 6 | 6 | 6 | 6 | 6 | –
COc1cc(/C=C/C(=O)OCC(=O)/C=C/c2ccc(O)cc2)ccc1O [compound 12, Demethoxycalebin- A2] | – | 6 | 6 | 6 | 6 | 6 | 10 | 6 | 6 | 6 | 6 | 6 | 6 | 6 | –
